Reference: patent publication US12605350B2, “Composition for preventing, ameliorating, or treating disease caused by nitration of tyrosine in proteins comprising tyrosine as effective component” (INDUSTRY-ACADEMIC COOPERATION FOUNDATION GYEONGSANG …, priority 2020, dated 2026)
“Also recorded” adds a separate entry of the source.

Tests used:
IL-1β = IL-1β gene expression in kidney tissues (quantitative real-time PCR), renal ischemia and reperfusion; format: in vivo, mouse; conditions: L-tyrosine 100 mg/kg oral once a day for 4 days, 24 hours after ischemia and reperfusion
Description: C57BL/6 male mouse (23 to 25 g, KOATECH, South Korea) was allowed to have free access to diets and water in sterile breeding room with constant temperature and humidity. The animals were divided into 3 test groups, i.e., 1) Control group (Sham), 2) Renal ischemia having treatment with prepared solvent and induced reperfusion group (CMC+IR), and 3) Renal ischemia having treatment with L-tyrosine and induced reperfusion group (L-Tyr+IR).
L-Tyrosine (100 mg/kg) was suspended in 0.5% CMC (carboxymethyl cellulose). The animal was orally administered, once a day for 4 days, with L-tyrosine or the prepared solvent CMC. Thirty minutes after the oral administration on Day 4, renal ischemia was caused. Specifically, the animal abdomen was cut and renal pedicles at both sides were clamped using a Muller atraumatic vascular clamp to cause renal ischemia. After 25 minutes of blood ischemia, the clamp was removed followed by reperfusion. The control group (Sham) received the same operational procedures as above except the ischemia using clamp. […]
According to Trizol method, total RNA was extracted from kidney tissues, and cDNA was synthesized by using Revert Aid Reverse Transcription System (ThermoFisher). Quantitative PCR was carried out with CFX Connect Real-Time PCR system (Bio-Rad) by using iQ SYBR Green Super mix (Bio-Rad). […]

[1] = test system: glutamine synthetase (GS); assay: activity of glutamine synthetase (GS) in hippocampus lysate after kainic acid; format: in vivo; conditions: mouse survived after kainic acid, tyrosine diet vs ND/control
Description: (§1) To a 96-well plate, 2 μl of hippocampus lysate were added, and then adjusted to 50 μl by additionally adding 50 mM imidazole-HCl buffer solution (pH 6.8). After adding 50 μl of GS activity assay buffer solution (50 mM imidazole-HCl, pH 6.8, 25 mM L-glutamine, 12.5 mM hydroxylamine, 12.5 mM sodium arsenate, 1 mM MnCl2 and 0.08 mM ADP), the reaction was allowed to occur at 37° C. for 30 to 60 minutes.
Upon the completion of the reaction, γ-glutamylhydroxamate as a reference material was added to an empty well such that it is present at a concentration of between 0.391 and 25.0 mM. To the sample and reference material, 100 μl of reaction termination solution (90 mM FeCl3, 1.8 N HCl and 1.45% (w/v) trichloroacetic acid) were added and absorbance at a wavelength of 560 nm was measured.
Based on comparison with standard curve, GS activity was obtained for each sample. GS activity was expressed in terms of the production amount of γ-glutamylhydroxamate as a final product with unit of μM/min/μg of protein.

[2] = test system: chronic immobilization stress group (STR); assay: TST (tail suspension test) after chronic immobilization stress; format: in vivo, mouse; conditions: tyrosine-diet (181.2 mg/kg) vs normal diet, p<0.05
Description: (§2) The animal models were divided into two groups (i.e., normal group and stress group). The animal of stress group was individually brought by force to a restrainer for 2 hours every day (i.e., between 2 PM and 4 PM) so that it was applied with chronic immobilization stress for 15 days. Change in bodyweight and food intake amount were measured every other day. The normal group and stress group were divided again into a normal diet group and a tyrosine-supplemented diet group (181.2 mg/kg), and then fed. For TST (tail suspension test), the mouse was individually hung in a box with horizontal bar. To measure the immobile duration, animal movement was followed for 6 minutes.

[3] = test system: glutamine synthetase (GS); assay: activity of glutamine synthetase (GS) in lysate of cerebral motor cortex, endothelin-1 stroke model; format: in vivo, mouse; conditions: Tyr diet (905 mg/kg L-Tyr)
Description: The mouse was anesthetized by intraperitoneal injection of avertin as an anesthetic (0.5 ml/25 g of mouse bodyweight). Thereafter, endothelin-1 was injected (2 μg) to the cerebral motor cortex area (with bregma at the center, AP 1.5 mm, ML-1.5 mm, and DV 1.8 mm) by stereotaxic surgery. The injection was made at speed of 0.3 μl per minute. The needle was left for about 5 minutes after completing the injection so that endothelin-1 can be fully absorbed in animal tissues. After suturing the skin, the animal was allowed to recover in the original cage.
as §1, with “of” for “of hippocampus”, “lysate of cerebral motor cortex” for “lysate”
Upon the completion of the reaction, γ-glutamylhydroxamate as a reference material was added to an empty well (0.391 to 25.0 mM). To the sample and reference material, 100 μl of reaction termination solution (90 mM FeCl3, 1.8 N HCl and 1.45% trichloroacetic acid) were added and absorbance at a wavelength of 560 nm was measured. Based on comparison with standard curve, GS activity was obtained for each sample. […]

[4] = test system: chronic immobilization stress group (STR); assay: OFT (open field test) after chronic immobilization stress; format: in vivo, mouse; conditions: tyrosine-diet (TD, 181.2 mg/kg) compared to normal diet (ND)
Description: as §2, with “OFT (open field test) was carried out using a rectangular box (60×60×20 cm). Mouse was placed at the center area of box (30×30 cm), and” for “For TST (tail suspension test),”, “mouse” for “mouse was individually hung in a box with horizontal bar. To measure the immobile duration, animal”, “5 minutes and total travel distance, center area duration, and frequency of center area entries were measured.” for “6 minutes.”

N[C@@H](Cc1ccc(O)cc1)C(=O)O [L-tyrosine]
gene expression of IL-1β in kidney tissues (IL-1β): suppressed

N[C@@H](Cc1ccc(O)cc1)C(=O)O [tyrosine]
GS activity in hippocampal tissues [1]: the same or higher than the control group; also recorded: statistically significant increase in GS activity | immobile duration [2]: statistically significant decrease in immobile duration | GS activity of the tissues (cerebral motor cortex) [3]: the activity can be maintained | center area duration [4]: higher | frequency of center area entries [4]: higher | travel distance [4]: higher
